Values quoted from earlier work as cited in publication PMC7455853 (European Journal of Medicinal Chemistry, 2020).
Structures can show the parent of a compound that is named as a salt.

Columns and labels:
[1] = test system: tubulin (colchicine binding); conditions: at 5 μM
[2] = test system: SrtA
[3] = test system: AURKA
[4] = test system: EGFR
[5] = test system: NF–Y binding to the ICB2; conditions: EMSA
[6] = test system: ICB2 site
[7] = test system: HIF-1; conditions: read-out: HIF-1 inhibitory activity IC50; HeLa cells

COc1ccc(/C=C\c2cc(OC)c(OC)c(OC)c2)cc1O [CA-4, combretastatin A-4]
inhibition of colchicine binding [1]: 98%

COc1ccc2cc3[n+](cc2c1OC)CCc1cc2c(cc1-3)OCO2 [berberine hydrochloride]
IC50 [2]: 120 µM

Brc1cccc(Nc2ncnc3[nH]ccc23)c1 [compound 8]
IC50 [3]: 1.99 µM | IC50 [4]: 0.00376 µM

COc1ccc(-c2nc3ccc(C(=O)Nc4cn(C)c(C(=O)Nc5cc(C(=O)NCCCN(C)C)n(CCCN)c5)n4)cc3[nH]2)cc1 [compound 19a]
doses giving dose-dependent inhibition of NF–Y binding to the ICB2 [5]: ≥ 3 µM | DNA binding affinity [6]: 0.5 µM

O=C(Cc1ccc(O)cc1)n1cc(-c2ccc(O)cc2)c(-c2ccc(O)cc2)c1 [neolamellarin A]
IC50 [7]: 10.8 µM
